Data published in patent US8067424B2, “Selective inhibitors for cyclin-dependent kinases” (Emory University, priority 2007, dated 2011).
Read-outs that look alike come from different tables or passages of the source.

Tests used:
[1] = biological target: T1, CDK7 complex (CDK7, Cyclin H, MAT1) (Homo sapiens, UniProt P50613); experiment: CDK7/CycH/MAT1 trimeric complex kinase assay (PKLight luciferase); assay type: biochemical; conditions: for IC50: Table 2; for CDK7 % remaining kinase activity after incubation with 100 nM of compound / remaining activity at 0.1 µM: mean of three (standard deviation), 100 nM; for remaining activity at 0.1 µM: read-out: CDK7 % remaining kinase activity after incubation with 100 nM of compound
T1 construct: purchased Proqinase GmbH, Germany
T1 sequence (P50613 whole entry): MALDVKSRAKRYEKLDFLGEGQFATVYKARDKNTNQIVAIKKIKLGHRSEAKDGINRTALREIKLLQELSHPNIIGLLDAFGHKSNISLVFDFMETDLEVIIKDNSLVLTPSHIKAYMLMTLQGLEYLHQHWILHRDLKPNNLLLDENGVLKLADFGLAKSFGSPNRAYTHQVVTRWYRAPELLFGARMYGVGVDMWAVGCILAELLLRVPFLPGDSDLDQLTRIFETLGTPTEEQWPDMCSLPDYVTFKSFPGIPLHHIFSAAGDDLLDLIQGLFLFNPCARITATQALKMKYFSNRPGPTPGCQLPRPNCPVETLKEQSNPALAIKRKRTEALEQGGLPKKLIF
T1 sequence (P51946 whole entry partner): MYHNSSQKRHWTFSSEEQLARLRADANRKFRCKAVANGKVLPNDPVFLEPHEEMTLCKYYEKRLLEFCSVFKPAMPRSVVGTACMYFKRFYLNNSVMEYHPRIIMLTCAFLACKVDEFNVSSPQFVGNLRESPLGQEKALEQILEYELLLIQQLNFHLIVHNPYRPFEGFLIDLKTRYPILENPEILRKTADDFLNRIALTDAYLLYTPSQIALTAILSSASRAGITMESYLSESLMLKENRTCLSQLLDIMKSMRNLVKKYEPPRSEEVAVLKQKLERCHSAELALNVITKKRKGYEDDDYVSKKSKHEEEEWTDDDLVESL
T1 sequence (P51948 whole entry partner): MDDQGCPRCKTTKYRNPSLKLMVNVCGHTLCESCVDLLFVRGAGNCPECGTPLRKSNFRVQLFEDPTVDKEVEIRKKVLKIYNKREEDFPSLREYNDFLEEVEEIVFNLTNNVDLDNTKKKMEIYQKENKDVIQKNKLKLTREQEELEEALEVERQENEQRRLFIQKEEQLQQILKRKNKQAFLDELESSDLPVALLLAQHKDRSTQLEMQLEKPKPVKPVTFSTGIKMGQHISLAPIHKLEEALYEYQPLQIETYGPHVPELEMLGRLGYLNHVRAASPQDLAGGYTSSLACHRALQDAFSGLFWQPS
Method: (§1) Prepared test compounds, prepared at concentrations of 1000, 100, 10, 1 and 0.1 μM. Diluted 1 in 40 in ddH2O and added 1 μl of test compound or DMSO (controls). • 3. Incubated at 30° C. for 30 mins in a water bath. • 4. Added 10 µl of ATP […] per reaction to get a final concentration of 2 μM ATP. • 5. Made up to 25 μl total volume with ddH2O • 6. Incubated for 20 min at 30° C. in a water bath • 7. Used the PKLight Kinase assay (Cambrex, UK), add to each reaction 10 μl of stop reaction and mix thoroughly. Incubated at room temp for 10 min. • 8. Added 20 μ1 Luciferase reaction mixture (Cambrex, UK) per reaction, and further incubated at room temp for 10 mins and determined luciferase activities according to manufacturer's methods. Kinase reactions were added to 96 well microplates and luciferase activities determined using a Packard TopCount NXT™ luminescent counter (TopCount 9904). The luminometer was programmed to take a read time of 0.1 integrated reading and emission of light was detectable at 560 nm. • 9. All kinase inhibition assays were carried out in triplicate. As the bioluminescent signal is inversely proportional to kinase activity, all values were deducted from the no enzyme control. These values were then plotted utilizing the enzyme control as a reference to 100% activity and compared to all other values.

CDK2/cyclin A complex = biological target: T2, CDK2/cyclin A complex (Homo sapiens, UniProt P24941); experiment: CDK2/cyclin A kinase assay (as for CDK7); assay type: biochemical; conditions: for IC50: Table 2, read-out: CDK2 IC50; for remaining activity at 0.1 µM: read-out: CDK2 % remaining kinase activity after incubation with 100 nM of compound
T2 construct: purchased Proqinase GmbH, Germany
Method: as §1
(§2) Inhibition of CDK2 was assessed using 50 ng CDK2/cyclin A complex (Proqinase GmbH, Germany), as above for CDK7 Inhibition of CDK9 was assessed using 100 ng CDK9/cyclin T complex (Proqinase GmbH, Germany), as above for CDK7.

CDK9/cyclin T complex = biological target: T3, CDK9/cyclin T complex (Homo sapiens, UniProt P50750); experiment: CDK9/cyclin T kinase assay (as for CDK7); assay type: biochemical; conditions: Table 2; read-out: CDK9 IC50
T3 construct: purchased Proqinase GmbH, Germany
T3 sequence (P50750 whole entry): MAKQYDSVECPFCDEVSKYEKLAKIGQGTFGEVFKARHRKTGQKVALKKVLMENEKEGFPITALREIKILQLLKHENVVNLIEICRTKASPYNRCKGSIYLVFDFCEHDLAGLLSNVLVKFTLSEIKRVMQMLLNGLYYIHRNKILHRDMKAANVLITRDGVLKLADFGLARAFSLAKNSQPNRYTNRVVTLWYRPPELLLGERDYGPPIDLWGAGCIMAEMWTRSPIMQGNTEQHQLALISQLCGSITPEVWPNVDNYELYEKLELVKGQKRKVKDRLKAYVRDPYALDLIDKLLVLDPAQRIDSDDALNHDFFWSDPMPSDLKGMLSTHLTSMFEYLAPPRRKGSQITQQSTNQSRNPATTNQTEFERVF
T3 sequence (O60563 whole entry partner): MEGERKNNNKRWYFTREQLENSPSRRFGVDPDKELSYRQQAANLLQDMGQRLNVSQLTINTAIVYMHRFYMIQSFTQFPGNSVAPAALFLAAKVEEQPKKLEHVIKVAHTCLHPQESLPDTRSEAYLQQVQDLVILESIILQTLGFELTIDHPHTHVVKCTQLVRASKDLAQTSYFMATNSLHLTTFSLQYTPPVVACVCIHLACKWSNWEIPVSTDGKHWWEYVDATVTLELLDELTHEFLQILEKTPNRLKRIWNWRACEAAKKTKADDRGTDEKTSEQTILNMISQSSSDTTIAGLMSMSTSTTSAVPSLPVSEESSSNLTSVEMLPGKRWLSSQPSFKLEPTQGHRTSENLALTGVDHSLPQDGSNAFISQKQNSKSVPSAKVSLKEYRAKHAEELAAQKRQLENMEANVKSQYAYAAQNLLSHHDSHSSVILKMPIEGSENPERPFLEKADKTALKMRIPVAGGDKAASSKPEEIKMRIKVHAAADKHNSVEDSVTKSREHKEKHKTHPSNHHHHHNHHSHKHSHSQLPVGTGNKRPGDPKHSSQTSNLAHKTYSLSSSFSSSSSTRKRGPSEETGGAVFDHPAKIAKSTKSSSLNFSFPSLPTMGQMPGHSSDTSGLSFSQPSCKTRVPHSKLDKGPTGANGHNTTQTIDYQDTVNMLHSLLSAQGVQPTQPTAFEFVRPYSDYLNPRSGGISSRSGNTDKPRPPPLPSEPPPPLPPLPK
Method: as §1, §2

MCF-7 cell line = experiment: cells; assay type: cell-based; conditions: MCF-7, SRB assay, 24 hours; for IC50: mean of three experiments, read-out: IC50; for IC (total growth inhibition): read-out: TGI
Method: In the SRB assay, sixteen hours following seeding of 3×10^3 MCF-7 cells in 96-well plates in DMEM containing 10% FCS, the medium was replaced with fresh medium supplemented with the compound of interest, or an equivalent volume of the vehicle control (DMSO), at concentrations, ranging from 0.1 to 100 μM. The compounds were added to three well to provide replicates. The cells were fixed after 24 hours, using 40% (w/v) TCA, for one hour at 4° C., washed five times with distilled, deionised H2O, followed by incubation with 0.4% (w/v) sulphorhodamine B (SRB) in 1% acetic acid for one hour at room temperature. Excess dye was removed with five washes with 1% acetic acid and drying at room temperature. Absorbance at 480 nm was determined following solubilisation of the dye by the addition of 100 μl of 10 mM Tris base to each well.
SRB values (absorbance at 480 nm) for the vehicle control (DMSO) were set at 100% and absorbance at 480 nm for the compound treatments were calculated relative to the control.

[2] = 100 nM, mean of three (standard deviation)

SMILES | IC50 [1] [µM] | IC50 (CDK2/cyclin A complex) [µM] | IC50 (CDK9/cyclin T complex) [µM] | remaining activity at 0.1 µM [1] [%] | remaining activity at 0.1 µM (CDK2/cyclin A complex; [2]) [%] | LC50 (concentration causing 50% net cell kill) (MCF-7 cell line; Homo sapiens, MCF7, 24 h) [µM] | IC (total growth inhibition) (MCF-7 cell line; Homo sapiens, MCF7, 24 h) [µM] | IC50 (MCF-7 cell line; Homo sapiens, MCF7) [µM] | further results
CC(C)c1cnn2c(NCc3ccccc3F)cc(N[C@@H](CO)CCCCCCN)nc12 [Example 12] | ~0.1 | > 1 | 0.1 to 1 | – | – | – | – | – | –
CC(C)c1cnn2c(NCc3ccccc3F)cc(NCC3CCC(CN)CC3)nc12 (stereo not drawn) [ICEC0214] | – | – | – | – | – | – | – | – | CDK7 % remaining kinase activity after incubation with 100 nM of compound [1]: 60% (5.1); CDK2 % remaining kinase activity after incubation with 100 nM of compound (CDK2/cyclin A complex; [2]): 74% (3.3); LC50 (concentration causing 50% net cell kill) (MCF-7 cell line): 140 µM; IC50 (MCF-7 cell line): > 200 µM; IC (total growth inhibition) (MCF-7 cell line): >200 µM
CC(C)c1cnn2c(NCc3ccccc3)cc(NCCCCN)nc12 [ICEC0277] | – | – | – | 12.6 | 89 | 40 | – | – | –
CC(C)c1cnn2c(NCc3ccccc3)cc(NCC/C=C/CCN)nc12 [ICEC0278] | – | – | – | 21 | 72 | 45 | – | – | –
CC(C)c1cnn2c(NCc3ccccc3)cc(NCCOCCO)nc12 [Example 3, 2-(2-(7-(Benzylamino)-3-isopropylpyrazolo[1,5-a]pyrimidin-5-ylamino)ethoxy)ethanol] | 0.032 | > 1 | ~0.1 | – | – | – | – | – | –
CC(C)c1cnn2c(NCc3ccccc3F)cc(NCC3CCC(CN)CC3)nc12 (stereo not drawn) [ICEC0213] | – | – | – | – | 90 | – | 119 | > 200 | CDK7 % remaining kinase activity after incubation with 100 nM of compound [1]: 81% (0.2); LC50 (concentration causing 50% net cell kill) (MCF-7 cell line): 31 µM
CC(C)Nc1cc(NCc2ccccc2)n2ncc(C(C)C)c2n1 [Example 2, N^7-Benzyl-N^5,3-diisopropylpyrazolo[1,5-a]pyrimidine-5,7-diamine] | > 1 | ~0.1 | > 1 | – | – | – | – | – | –
CC[C@H](CO)Nc1cc(NCc2ccccc2)n2ncc(C(C)C)c2n1 [Example 6] | 0.07 | > 1 | ~0.1 | – | – | – | – | – | –
CC(C)c1cnn2c(NCc3cccc(OS(=O)(=O)c4cccc5c(N(C)C)cccc45)c3)cc(NCCCCCN)nc12 [ICEC0289] | – | – | – | 47 | 79 | 19 | – | – | –
CC(C)c1cnn2c(NCc3ccccc3F)cc(N[C@H]3CC[C@H](N)CC3)nc12 [ICEC0229] | – | – | – | 54 | 60 | 27 | 42 | 109 | –
CC(C)c1cnn2c(NCc3ccc(Cl)cc3Cl)cc(Cl)nc12 [ICEC0239] | – | – | – | 82 | 85 | 59 | 200 | > 200 | –
CC(C)c1cnn2c(N[C@@H](C)c3ccccc3)cc(NCCCCCCNc3cc(N[C@@H](C)c4ccccc4)n4ncc(C(C)C)c4n3)nc12 [ICEC0236] | – | – | – | 91 | 68 | 11 | 28 | 46 | –
CC(C)c1cnn2c(NCc3ccc(C(F)(F)F)cc3)cc(Cl)nc12 [ICEC0240] | – | – | – | 75 | 82 | 48 | 97 | > 200 | –
